Experimental data as given in patent US20240132484A1, “BROAD SPECTRUM ANTIVIRAL COMPOUNDS TARGETING THE SKI COMPLEX” (priority 2020, published 2024).
Values joined by “and” are separate entries in the source; they are usually repeats but may differ in a detail not shown here. Identical values can stand only once. Like-named read-outs stand apart in the source and are kept apart here.

Columns and labels:
[1] = test system: SARS2; format: cell-based, SARS-CoV-2; conditions: for Percentage Infection Relative to Appropriate DMSO Control with Avg Background Subtraction: Nunc Celigo plates; for Percentage Inhibition Average 1 μM / Screening data (Relative infection to DMSO controls) Average 1 μM: SARS2, 1 μM; for Screening data (Relative infection to DMSO controls) Average 1 μM / Screening data (Relative infection to DMSO controls) Average 5 μM / Screening data (Relative infection to DMSO controls) Average 10 μM / Screening data (Relative infection to DMSO controls) Average 25 μM / Screening data (Relative infection to DMSO controls) Average 50 μM / Average (relative infection to DMSO over the 5 tested concentrations): 100=DMSO control; for Percentage Inhibition Average 5 μM / Screening data (Relative infection to DMSO controls) Average 5 μM: SARS2, 5 μM; for Percentage Inhibition Average 10 μM / Screening data (Relative infection to DMSO controls) Average 10 μM: SARS2, 10 μM; for Percentage Inhibition Average 25 μM / Screening data (Relative infection to DMSO controls) Average 25 μM: SARS2, 25 μM; for Percentage Inhibition Average 50 μM / Screening data (Relative infection to DMSO controls) Average 50 μM: SARS2, 50 μM; for Average (relative infection to DMSO over the 5 tested concentrations): SARS2, average over 1 to 50 uM; for Infection Data, Average, Mean: average of Exp 1-2 (SMW491, SMW492)
[2] = test system: cells (nuclei count); conditions: for Relative cell count to DMSO controls, Average 1 μM / Relative cell count to DMSO controls, Average 5 μM / Relative cell count to DMSO controls, Average 10 μM / Relative cell count to DMSO controls, Average 25 μM / Relative cell count to DMSO controls, Average 50 μM: toxicity data, 100=DMSO control; for Toxicity Data, Average, Mean percentage relative to DMSO control: Average of Exp 1 (SMW491) and Exp 2 (SMW492); for Relative cell count to DMSO controls, Average (for correlation analysis): average value over the 5 tested concentrations (1 to 50 uM)

CN(C)CCCN(Cc1cccs1)C(=O)c1cccs1 [SILCS40]
SARS2 antiviral activity [1]: inactive
Percentage Infection Relative to Appropriate DMSO Control with Avg Background Subtraction ([1]; Exp 1 (SMW491), 1 uM): 161.72% and 144.95%
Percentage Infection Relative to Appropriate DMSO Control with Avg Background Subtraction ([1]; Exp 1 (SMW491), 5 uM): 118.41% and 120.39%
Percentage Infection Relative to Appropriate DMSO Control with Avg Background Subtraction ([1]; Exp 1 (SMW491), 10 uM): 125.55% and 160.68%
Percentage Infection Relative to Appropriate DMSO Control with Avg Background Subtraction ([1]; Exp 1 (SMW491), 25 uM): 122.15% and 145.90%
Percentage Infection Relative to Appropriate DMSO Control with Avg Background Subtraction ([1]; Exp 1 (SMW491), 50 uM): 46.53% and 56.51%
Percentage Infection Relative to Appropriate DMSO Control with Avg Background Subtraction ([1]; Exp 2 (SMW492), 1 uM): 86.70% and 77.51%
Percentage Infection Relative to Appropriate DMSO Control with Avg Background Subtraction ([1]; Exp 2 (SMW492), 5 uM): 88.04% and 68.60%
Percentage Infection Relative to Appropriate DMSO Control with Avg Background Subtraction ([1]; Exp 2 (SMW492), 10 uM): 101.31% and 73.96%
Percentage Infection Relative to Appropriate DMSO Control with Avg Background Subtraction ([1]; Exp 2 (SMW492), 25 uM): 185.38% and 112.33%
Percentage Infection Relative to Appropriate DMSO Control with Avg Background Subtraction ([1]; Exp 2 (SMW492), 50 uM): 61.71% and 43.46%
Percentage Inhibition Average 1 μM [1]: −17.72%
Screening data (Relative infection to DMSO controls) Average 1 μM [1]: 117.72
Percentage Inhibition Average 5 μM [1]: 1.14%
Screening data (Relative infection to DMSO controls) Average 5 μM [1]: 98.86
Percentage Inhibition Average 10 μM [1]: −15.37%
Screening data (Relative infection to DMSO controls) Average 10 μM [1]: 115.37
Percentage Inhibition Average 25 μM [1]: −41.44%
Screening data (Relative infection to DMSO controls) Average 25 μM [1]: 141.44
Percentage Inhibition Average 50 μM [1]: 47.95%
Screening data (Relative infection to DMSO controls) Average 50 μM [1]: 52.05
Average (relative infection to DMSO over the 5 tested concentrations) [1]: 105.09
Infection Data, Average, Mean ([1]; n 4, 1 uM): 117.72%
Infection Data, Average, Mean ([1]; n 4, 5 uM): 98.86%
Infection Data, Average, Mean ([1]; n 4, 10 uM): 115.37%
Infection Data, Average, Mean ([1]; n 4, 25 uM): 141.44%
Infection Data, Average, Mean ([1]; n 4, 50 uM): 52.05%
Relative cell count to DMSO controls, Average 1 μM [2]: 86.49
Relative cell count to DMSO controls, Average 5 μM [2]: 96.33
Relative cell count to DMSO controls, Average 10 μM [2]: 92.49
Relative cell count to DMSO controls, Average 25 μM [2]: 83.93
Relative cell count to DMSO controls, Average 50 μM [2]: 117.52
Toxicity Data, Average, Mean percentage relative to DMSO control ([2]; n=4, 1 uM): 86.49%
Toxicity Data, Average, Mean percentage relative to DMSO control ([2]; n=4, 5 uM): 96.33%
Toxicity Data, Average, Mean percentage relative to DMSO control ([2]; n=4, 10 uM): 92.49%
Toxicity Data, Average, Mean percentage relative to DMSO control ([2]; n=4, 25 uM): 83.93%
Toxicity Data, Average, Mean percentage relative to DMSO control ([2]; n=4, 50 uM): 117.52%
Relative cell count to DMSO controls, Average (for correlation analysis) [2]: 95.35

COc1ccc(C2NC(=O)NC(C)=C2C(=O)NCC2CCC2)cc1OC (stereo not shown) [SILCS64]
Percentage Inhibition Average 1 μM [1]: 20.42%
Screening data (Relative infection to DMSO controls) Average 1 μM [1]: 79.58
Percentage Inhibition Average 5 μM [1]: 66.48%
Screening data (Relative infection to DMSO controls) Average 5 μM [1]: 33.52
Percentage Inhibition Average 10 μM [1]: −11.17%
Screening data (Relative infection to DMSO controls) Average 10 μM [1]: 111.17
Percentage Inhibition Average 25 μM [1]: −30.68%
Screening data (Relative infection to DMSO controls) Average 25 μM [1]: 130.68
Percentage Inhibition Average 50 μM [1]: −58.69%
Screening data (Relative infection to DMSO controls) Average 50 μM [1]: 158.69
Average (relative infection to DMSO over the 5 tested concentrations) [1]: 102.73
Relative cell count to DMSO controls, Average 1 μM [2]: 103.13
Relative cell count to DMSO controls, Average 5 μM [2]: 119.2
Relative cell count to DMSO controls, Average 10 μM [2]: 92.78
Relative cell count to DMSO controls, Average 25 μM [2]: 84.89
Relative cell count to DMSO controls, Average 50 μM [2]: 75.66
Relative cell count to DMSO controls, Average (for correlation analysis) [2]: 95.13
